IC50 data for 2 compounds are collected here from article PMC12181431, “Unveiling the structure, function and dynamics of StmPr1 in Stenotrophomonas maltophilia virulence” (Scientific Reports, 2025).

One test addresses T1, StmPr1 (Stenotrophomonas maltophilia, UniProt Q93IQ4).
T1 construct: StmPr1 36 kDa (self-digested from 47 kDa, C-terminal extension cleaved)
The experiment in a line: X-ray crystal structure ([…] Å) plus protease activity assay. It counts as biochemical.

A further test deals with T2, Proteinase K (Parengyodontium album, UniProt P06873).
T2 construct: gene PROK
T2 sequence (P06873 106-384): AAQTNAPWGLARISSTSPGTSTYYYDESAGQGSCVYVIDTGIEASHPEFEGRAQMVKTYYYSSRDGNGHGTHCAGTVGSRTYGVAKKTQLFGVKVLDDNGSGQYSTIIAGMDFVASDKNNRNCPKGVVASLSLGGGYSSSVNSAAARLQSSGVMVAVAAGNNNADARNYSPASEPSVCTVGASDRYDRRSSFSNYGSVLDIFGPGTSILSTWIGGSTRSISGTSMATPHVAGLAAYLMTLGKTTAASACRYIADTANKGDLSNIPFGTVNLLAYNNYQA
The experiment in a line: protease activity assay (same assay as for StmPr1). It counts as biochemical.

Read-outs that look alike come from different tables or passages of the source.

T1 sequence (Q93IQ4 entry or part of it): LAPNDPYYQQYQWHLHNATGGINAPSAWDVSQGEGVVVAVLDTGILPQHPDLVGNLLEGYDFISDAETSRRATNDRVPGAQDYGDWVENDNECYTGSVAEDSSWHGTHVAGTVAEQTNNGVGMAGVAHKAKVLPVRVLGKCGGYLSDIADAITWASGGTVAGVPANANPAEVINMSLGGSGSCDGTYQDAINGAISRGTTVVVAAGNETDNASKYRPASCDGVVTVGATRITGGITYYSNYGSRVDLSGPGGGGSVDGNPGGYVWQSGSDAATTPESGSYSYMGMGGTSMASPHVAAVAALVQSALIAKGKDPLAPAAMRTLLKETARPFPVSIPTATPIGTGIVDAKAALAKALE

As for `CC(C)C[C@H](NC(=O)[C@H](Cc1ccccc1)NC(=O)c1cnccn1)B(O)O` [Bortezomib], the IC50 on StmPr1 (read-out: IC50) is 1.97 µM; against Proteinase K it was 1.45 µM.
Turning to `O=S(=O)(F)Cc1ccccc1` [PMSF], the IC50 at StmPr1 was found to be 125 µM.

As usually defined, the IC50 is the concentration that inhibits the measured activity by half.
